Literature values in patent publication US20210251559A1, “METHODS FOR DIAGNOSING, MONITORING AND TREATING NEUROLOGICAL DISEASES AND DISORDERS” (CuraSen Therapeutics, Inc., priority 2018, published 2021).

System: Ts65Dn mice
Details: increasing brain NE levels

N[C@H](C(=O)O)[C@H](O)c1ccc(O)c(O)c1 [L-DOPS, L-threo-3,4-dihydroxyphenylserine]
contextual learning: restored contextual learning
